Data as given in ChEMBL document CHEMBL2331186, “Five new phenolic glycosides from Hedyotis scandens” (Bioorg Med Chem Lett, 2013).
The source made the active and inactive calls. The calls are words filed in the database; no cut-off is given here.

How the values were obtained:
[1] = tested on: Respiratory syncytial virus; assay: Antiviral activity against Respiratory syncytial virus assessed as reduction of virus-induced cytopathic effect at maximal non-toxic concentration; format: functional, organism-based
[2] = tested on: Respiratory syncytial virus; assay: Antiviral activity against Respiratory syncytial virus assessed as reduction of virus-induced cytopathic effect; format: functional, organism-based

| SMILES | Activity [1] | Activity [2] |
| --- | --- | --- |
| O=C(/C=C/c1ccc(O)c(O[C@@H]2O[C@H](CO)[C@@H](O)[C@H](O)[C@H]2O)c1)O/C=C\c1ccc(O)c(O)c1 | inactive | – |
| CCCCOC(=O)[C@@H](Cc1ccc(O)c(O)c1)OC(=O)/C=C/c1ccc(O)c(O[C@@H]2O[C@H](CO)[C@@H](O)[C@H](O)[C@H]2O)c1 | inactive | – |
| O=C(O)/C=C/c1ccc(O)c(O)c1 | inactive | – |
| COc1cc(O[C@@H]2O[C@H](CO[C@@H]3OC[C@](O)(COC(=O)/C=C/c4ccc(O)cc4)[C@H]3O)[C@@H](O)[C@H](O)[C@H]2O)cc(OC)c1OC | inactive | – |
| CCCCOC(=O)[C@@H](Cc1ccc(O)c(O)c1)OC(=O)/C=C/c1ccc(O)c(O)c1 | inactive | – |
| Cc1occc(=O)c1O[C@@H]1O[C@H](CO[C@@H]2OC[C@](O)(CO)[C@H]2O)[C@@H](O)[C@H](O)[C@H]1O | – | Active |
| OCCc1cc(O)cc(O[C@@H]2O[C@H](CO)[C@@H](O)[C@H](O)[C@H]2O)c1 | – | Active |
| COC(=O)[C@@H](Cc1ccc(O)c(O)c1)OC(=O)/C=C/c1ccc(O)c(O[C@@H]2O[C@H](CO)[C@@H](O)[C@H](O)[C@H]2O)c1 | inactive | – |
| N#C[C@H](O[C@@H]1O[C@H](CO[C@@H]2OC[C@](O)(COC(=O)/C=C/c3ccc(O)cc3)[C@H]2O)[C@@H](O)[C@H](O)[C@H]1O)c1ccccc1 | inactive | – |
| COC(=O)[C@@H](Cc1ccc(O)c(O)c1)OC(=O)/C=C/c1ccc(OC)c(O)c1 | inactive | – |
| O=C(/C=C/c1ccc(O)c(O)c1)O/C=C\c1ccc(O)c(O)c1 | inactive | – |
| O=C(/C=C/c1ccc(O)c(O)c1)O[C@H](Cc1ccc(O)c(O)c1)C(=O)O | inactive | – |
| Cc1occc(=O)c1O[C@@H]1O[C@H](CO[C@@H]2OC[C@](O)(COC(=O)/C=C/c3ccc(O)cc3)[C@H]2O)[C@@H](O)[C@H](O)[C@H]1O | inactive | – |
| Cc1occc(=O)c1O[C@@H]1O[C@H](CO[C@@H]2OC[C@](O)(COC(=O)/C=C/c3ccc(O)c(O)c3)[C@H]2O)[C@@H](O)[C@H](O)[C@H]1O | inactive | – |
| COC(=O)[C@@H](Cc1ccc(O)c(O)c1)OC(=O)/C=C/c1ccc(O)c(O)c1 | inactive | – |
